Data: patent US20260207623A1, “USE OF ESTETROL IN HEPATICALLY IMPAIRED PATIENTS” (ESTETRA SRL, priority 2022, published 2026)
Entries after “also recorded” stand apart in the source; their conditions may differ.

Legend:
[1] = tested on: post-menopausal women; assay: Example 2 dose-finding study: weekly frequency of moderate to severe VMS (absolute and relative change, responders); format: in vivo, human; settings: for Weekly frequency of moderate to severe VMS, relative change (% from baseline), Mean: section B analysis
Source text: Enrolment was approximately 18 months. Individual subject participation was up to 27 weeks: up to 6 weeks pre-screening and washout, up to 4 weeks screening and run-in period, up to 91 days (13 weeks) of E4 monohydrate or placebo treatment followed by 2 weeks (14 days) of progestin therapy and a Follow up visit 1 week after completion of progestin therapy in non-hysterectomied subjects only.
To define the minimum effective dose (MED) of the oral dose of E4 by evaluating changes in frequency and in severity of moderate to severe vasomotor symptoms (VMS).
This was a prospective, multicentre, randomised, placebo-controlled, double-blinded, dose-finding study.
Eligible subjects were hysterectomied and non-hysterectomied post-menopausal women aged 40 to 65 years, inclusive, presenting at least 7 moderate to severe hot flushes/day or at least 50 moderate to severe hot flushes/week.
All treatments (Estetrol, hereinafter E4 as monohydrate, [2.5 mg, 5 mg, 10 mg, 15 mg] capsule) were administered once daily (QD) per os for at least 12 consecutive weeks until the last biological assessments (Day 91 maximum) had been performed.
In order to analyse the data recorded in this study, treatment groups have been compared using an ANCOVA (analysis of covariance) with respect to the change in weekly frequency of moderate to severe VMS from baseline to weeks 4 and 12. The ANCOVA model includes treatment (“trt1”) and study centre (“SITEPOOL”) as a fixed effect and baseline (“base”) as a covariate.
VMS frequency was also studied by grouping patients according to their degree of response.

[2] = tested on: Haemoglobin A1C; assay: Example 3: haemoglobin A1C, change from baseline to week 12; format: in vivo, human

SMILES: C[C@]12CC[C@@H]3c4ccc(O)cc4CC[C@H]3[C@@H]1[C@@H](O)[C@@H](O)[C@@H]2O [E4 monohydrate, estetrol monohydrate]
- Mean relative change (% from baseline) in weekly frequency of moderate to severe VMS ([1]; 10 mg QD, week 1): −21%
- Mean relative change (% from baseline) in weekly frequency of moderate to severe VMS ([1]; 10 mg QD, week 2): −37%
- Mean relative change (% from baseline) in weekly frequency of moderate to severe VMS ([1]; 10 mg QD, week 3): −48%
- Mean relative change (% from baseline) in weekly frequency of moderate to severe VMS ([1]; 10 mg QD, week 4): −55%
- Mean relative change (% from baseline) in weekly frequency of moderate to severe VMS ([1]; 10 mg QD, week 5): −60%
- Mean relative change (% from baseline) in weekly frequency of moderate to severe VMS ([1]; 10 mg QD, week 6): −65%
- Mean relative change (% from baseline) in weekly frequency of moderate to severe VMS ([1]; 10 mg QD, week 10): −70%
- Mean relative change (% from baseline) in weekly frequency of moderate to severe VMS ([1]; 10 mg QD, week 11): −70%
- Mean relative change (% from baseline) in weekly frequency of moderate to severe VMS ([1]; 10 mg QD, week 12): −72%
- Weekly frequency of moderate to severe VMS, relative change (% from baseline), Mean ([1]; 10 mg daily, week 0): 0%
- Weekly frequency of moderate to severe VMS, relative change (% from baseline), Mean ([1]; 10 mg daily, week 1): −21%
- Weekly frequency of moderate to severe VMS, relative change (% from baseline), Mean ([1]; 10 mg daily, week 2): −37%
- Weekly frequency of moderate to severe VMS, relative change (% from baseline), Mean ([1]; 10 mg daily, week 3): −48%
- Weekly frequency of moderate to severe VMS, relative change (% from baseline), Mean ([1]; 10 mg daily, week 4): −55%
- Weekly frequency of moderate to severe VMS, relative change (% from baseline), Mean ([1]; 10 mg daily, week 5): −60%
- Weekly frequency of moderate to severe VMS, relative change (% from baseline), Mean ([1]; 10 mg daily, week 6): −65%
- Weekly frequency of moderate to severe VMS, relative change (% from baseline), Mean ([1]; 10 mg daily, week 7): −66%
- Weekly frequency of moderate to severe VMS, relative change (% from baseline), Mean ([1]; 10 mg daily, week 8): −68%
- Weekly frequency of moderate to severe VMS, relative change (% from baseline), Mean ([1]; 10 mg daily, week 9): −69%
- Weekly frequency of moderate to severe VMS, relative change (% from baseline), Mean ([1]; 10 mg daily, week 10): −70%
- Weekly frequency of moderate to severe VMS, relative change (% from baseline), Mean ([1]; 10 mg daily, week 11): −70%
- Weekly frequency of moderate to severe VMS, relative change (% from baseline), Mean ([1]; 10 mg daily, week 12): −72%
- Mean relative change (% from baseline) in weekly frequency of moderate to severe VMS ([1]; 15 mg QD, week 2): −46%
- Mean relative change (% from baseline) in weekly frequency of moderate to severe VMS ([1]; 15 mg QD, week 3): −57%
- Mean relative change (% from baseline) in weekly frequency of moderate to severe VMS ([1]; 15 mg QD, week 4): −67%
- Mean relative change (% from baseline) in weekly frequency of moderate to severe VMS ([1]; 15 mg QD, week 8): −79%
- Mean relative change (% from baseline) in weekly frequency of moderate to severe VMS ([1]; 15 mg QD, week 10): −80%
- Mean relative change (% from baseline) in weekly frequency of moderate to severe VMS ([1]; 15 mg QD, week 11): −82%
- Mean relative change (% from baseline) in weekly frequency of moderate to severe VMS ([1]; 15 mg QD, week 12): −84%
- Weekly frequency of moderate to severe VMS, relative change (% from baseline), Mean ([1]; 15 mg daily, week 0): 0%
- Weekly frequency of moderate to severe VMS, relative change (% from baseline), Mean ([1]; 15 mg daily, week 1): −22%
- Weekly frequency of moderate to severe VMS, relative change (% from baseline), Mean ([1]; 15 mg daily, week 2): −46%
- Weekly frequency of moderate to severe VMS, relative change (% from baseline), Mean ([1]; 15 mg daily, week 3): −57%
- Weekly frequency of moderate to severe VMS, relative change (% from baseline), Mean ([1]; 15 mg daily, week 4): −67%
- Weekly frequency of moderate to severe VMS, relative change (% from baseline), Mean ([1]; 15 mg daily, week 5): −72%
- Weekly frequency of moderate to severe VMS, relative change (% from baseline), Mean ([1]; 15 mg daily, week 6): −76%
- Weekly frequency of moderate to severe VMS, relative change (% from baseline), Mean ([1]; 15 mg daily, week 7): −79%
- Weekly frequency of moderate to severe VMS, relative change (% from baseline), Mean ([1]; 15 mg daily, week 8): −79%
- Weekly frequency of moderate to severe VMS, relative change (% from baseline), Mean ([1]; 15 mg daily, week 9): −81%
- Weekly frequency of moderate to severe VMS, relative change (% from baseline), Mean ([1]; 15 mg daily, week 10): −80%
- Weekly frequency of moderate to severe VMS, relative change (% from baseline), Mean ([1]; 15 mg daily, week 11): −82%
- Weekly frequency of moderate to severe VMS, relative change (% from baseline), Mean ([1]; 15 mg daily, week 12): −84%
- efficacy on vasomotor parameters ([1]; two lowest doses tested (2.5 mg per day and 5 mg per day)): did not show efficacy
- haemoglobin A1C levels ([2]; 15 mg and 20 mg, after 12 weeks, monohydrate): decreased; also recorded: reduced
- Haemoglobin A1C, mean ([2]; 15 mg, Baseline): 5.625
- Haemoglobin A1C, mean ([2]; 15 mg, Week 12): 5.504
- Haemoglobin A1C, mean ([2]; 20 mg, Baseline): 5.605
- Haemoglobin A1C, mean ([2]; 20 mg, Week 12): 5.458
